In ChEMBL document CHEMBL3621071, “Novel isoniazid-amidoether derivatives: Synthesis, characterization and antimycobacterial activity evaluation” (Medchemcomm, 2015):
Values after ≈ are worked out from the molar mass of the structure shown. Active and inactive are the calls of the source. No cut-off for these calls is given here.

Assays:
[1] = system: THP-1; experiment: Cytotoxic activity against human THP1 cells; type: cell-based
[2] = system: Mycobacterium tuberculosis; experiment: Antimycobacterial activity against Mycobacterium tuberculosis H37Rv ATCC 27294 assessed as inhibition of bacterial growth incubated for 14 days by inverted plate reader based macroscopy; type: functional; settings: H37Rv ATCC 27294, 336 h
[3] = system: Mycobacterium tuberculosis; experiment: Antimycobacterial activity against Mycobacterium tuberculosis H37Rv infected in Balb/c mouse assessed as reduction in lung bacterial load at 50 mg/kg, po dosed once daily 5 days per week for 3 to 10 weeks; type: functional, organism-based
[4] = system: Mycobacterium tuberculosis; experiment: Antimycobacterial activity against Mycobacterium tuberculosis H37Rv infected in Balb/c mouse assessed as reduction in spleen bacterial load at 25 mg/kg, po dosed once daily 5 days per week for 10 weeks; type: functional
[5] = system: Mycobacterium tuberculosis; experiment: Antimycobacterial activity against Mycobacterium tuberculosis H37Rv infected in Balb/c mouse assessed as reduction in spleen bacterial load at 100 mg/kg, po dosed once daily 5 days per week for 3 weeks; type: functional
[6] = system: Mycobacterium tuberculosis; experiment: Antimycobacterial activity against Mycobacterium tuberculosis H37Rv infected in Balb/c mouse assessed as reduction in spleen bacterial load at 100 mg/kg, po dosed once daily 5 days per week for 10 weeks; type: functional
[7] = system: Mycobacterium tuberculosis; experiment: Antimycobacterial activity against Mycobacterium tuberculosis H37Rv infected in Balb/c mouse assessed as reduction in spleen bacterial load at 50 mg/kg, po dosed once daily 5 days per week for 6 weeks; type: functional
[8] = system: Mycobacterium tuberculosis; experiment: Antimycobacterial activity against Mycobacterium tuberculosis H37Rv infected in Balb/c mouse assessed as reduction in spleen bacterial load at 50 mg/kg, po dosed once daily 5 days per week for 3 weeks; type: functional
[9] = system: Mycobacterium tuberculosis; experiment: Antimycobacterial activity against Mycobacterium tuberculosis H37Rv infected in Balb/c mouse assessed as reduction in lung bacterial load at 25 mg/kg, po dosed once daily 5 days per week for 3 to 10 weeks; type: functional, organism-based
[10] = system: Mycobacterium tuberculosis; experiment: Antimycobacterial activity against Mycobacterium tuberculosis H37Rv infected in Balb/c mouse assessed as reduction in spleen bacterial load at 50 mg/kg, po dosed once daily 5 days per week for 10 weeks; type: functional
[11] = system: Mycobacterium tuberculosis; experiment: Antimycobacterial activity against Mycobacterium tuberculosis H37Rv infected in Balb/c mouse assessed as reduction in lung bacterial load at 100 mg/kg, po dosed once daily 5 days per week for 3 to 10 weeks; type: functional, organism-based
[12] = system: Mycobacterium tuberculosis; experiment: Antimycobacterial activity against Mycobacterium tuberculosis H37Rv infected in Balb/c mouse assessed as reduction in spleen bacterial load at 25 mg/kg, po dosed once daily 5 days per week for 3 weeks; type: functional
[13] = system: Mycobacterium tuberculosis; experiment: Antimycobacterial activity against Mycobacterium tuberculosis H37Rv infected in Balb/c mouse assessed as reduction in spleen bacterial load at 10 mg/kg, po dosed once daily 5 days per week for 6 weeks; type: functional
[14] = system: Mycobacterium tuberculosis; experiment: Antimycobacterial activity against Mycobacterium tuberculosis H37Rv infected in Balb/c mouse assessed as reduction in spleen bacterial load at 10 mg/kg, po dosed once daily 5 days per week for 3 weeks; type: functional
[15] = system: Mycobacterium tuberculosis; experiment: Antimycobacterial activity against Mycobacterium tuberculosis H37Rv infected in Balb/c mouse assessed as reduction in spleen bacterial load at 10 mg/kg, po dosed once daily 5 days per week for 10 weeks; type: functional, organism-based
[16] = system: Mycobacterium tuberculosis; experiment: Antimycobacterial activity against Mycobacterium tuberculosis H37Rv infected in Balb/c mouse assessed as reduction in lung bacterial load at 10 mg/kg, po dosed once daily 5 days per week for 10; type: functional, organism-based
[17] = system: Mycobacterium tuberculosis; experiment: Antimycobacterial activity against Mycobacterium tuberculosis H37Rv infected in Balb/c mouse assessed as reduction in lung bacterial load at 10 mg/kg, po dosed once daily 5 days per week for 3 weeks; type: functional
[18] = system: Mycobacterium tuberculosis; experiment: Antimycobacterial activity against Mycobacterium tuberculosis H37Rv infected in Balb/c mouse assessed as reduction in lung bacterial load at 10 mg/kg, po dosed once daily 5 days per week for 6; type: functional
[19] = system: Mycobacterium tuberculosis; experiment: Antimycobacterial activity against Mycobacterium tuberculosis H37Rv infected in Balb/c mouse assessed as reduction in spleen bacterial load at 25 mg/kg, po dosed once daily 5 days per week for 6 weeks; type: functional, organism-based
[20] = system: Mycobacterium tuberculosis; experiment: Antimycobacterial activity against Mycobacterium tuberculosis H37Rv infected in Balb/c mouse assessed as reduction in lung bacterial load at 25 mg/kg, po dosed once daily 5 days per week for 6 weeks; type: functional
[21] = system: Mycobacterium tuberculosis; experiment: Antimycobacterial activity against Mycobacterium tuberculosis H37Rv infected in Balb/c mouse assessed as reduction in lung bacterial load at 25 mg/kg, po dosed once daily 5 days per week for 3 weeks; type: functional
[22] = system: Mycobacterium tuberculosis; experiment: Antimycobacterial activity against Mycobacterium tuberculosis H37Rv infected in Balb/c mouse assessed as reduction in lung bacterial load at 25 mg/kg, po dosed once daily 5 days per week for 10 weeks; type: functional

Compound	Activity [1] [µM]	MIC99 [2] [µM]	also measured
O=C(COc1ccc(/C=N/NC(=O)c2ccncc2)cc1)NCCc1ccccc1	> 50	0.78 (≈ 0.314 µg/mL)	
O=C(COc1ccc(/C=N/NC(=O)c2ccncc2)cc1)Nc1ccc(Cl)cc1	> 50	0.39 (≈ 0.159 µg/mL)	
O=C(COc1ccc(/C=N/NC(=O)c2ccncc2)cc1)Nc1cccc(F)c1	> 50	0.78 (≈ 0.306 µg/mL)	
COc1ccc(CNC(=O)COc2ccc(/C=N/NC(=O)c3ccncc3)cc2)cc1	> 50	0.39 (≈ 0.163 µg/mL)	
Cc1ccc(NC(=O)COc2ccc(/C=N/NC(=O)c3ccncc3)cc2)cc1	> 50	0.39 (≈ 0.151 µg/mL)	Activity [3]: inactive; Activity [4]: 1.23 log10CFU; Activity [5]: 1.77 log10CFU; Activity [6]: 3.11 log10CFU; Activity [7]: 2.28 log10CFU; Activity [8]: 1.4 log10CFU; Activity [9]: inactive; Activity [10]: 2.14 log10CFU; Activity [11]: inactive; Activity [12]: 1.19 log10CFU
O=C(COc1ccc(/C=N/NC(=O)c2ccncc2)cc1)Nc1ccccn1	> 50	0.78 (≈ 0.293 µg/mL)	
O=C(COc1ccc(/C=N/NC(=O)c2ccncc2)cc1)Nc1ccc(F)cc1	> 50	0.78 (≈ 0.306 µg/mL)	
CCc1ccc(NC(=O)COc2ccc(/C=N/NC(=O)c3ccncc3)cc2)cc1	> 50	0.39 (≈ 0.157 µg/mL)	
COc1ccc(NC(=O)COc2ccc(/C=N/NC(=O)c3ccncc3)cc2)cc1	> 50	0.39 (≈ 0.158 µg/mL)	
CO[C@H]1/C=C/O[C@@]2(C)Oc3c(C)c(O)c4c(O)c(c(/C=N/N5CCN(C)CC5)c(O)c4c3C2=O)NC(=O)/C(C)=C\C=C\[C@H](C)[C@H](O)[C@@H](C)[C@@H](O)[C@@H](C)[C@H](OC(C)=O)[C@@H]1C [RIFAMPIN]			Activity [13]: 3.31 log10CFU; Activity [14]: 1.76 log10CFU; Activity [15]: Active; Activity [16]: Active; Activity [17]: 1.93 log10CFU; Activity [18]: 2.8 log10CFU
O=C(COc1ccc(/C=N/NC(=O)c2ccncc2)cc1)Nc1cccnc1	> 50	0.39 (≈ 0.146 µg/mL)	
O=C(COc1ccc(/C=N/NC(=O)c2ccncc2)cc1)Nc1ccccc1F	> 50	0.78 (≈ 0.306 µg/mL)	
O=C(COc1ccc(/C=N/NC(=O)c2ccncc2)cc1)Nc1ccccc1Cl	> 50	0.78 (≈ 0.319 µg/mL)	
O=C(COc1ccc(/C=N/NC(=O)c2ccncc2)cc1)Nc1cccc(Cl)c1	> 50	0.78 (≈ 0.319 µg/mL)	
O=C(COc1ccc(/C=N/NC(=O)c2ccncc2)cc1)Nc1cccc(Br)c1	> 50	0.78 (≈ 0.354 µg/mL)	
NNC(=O)c1ccncc1 [ISONIAZID]		0.39 (≈ 0.0535 µg/mL)	Activity [4]: Active; Activity [19]: Active; Activity [20]: 2.59 log10CFU; Activity [21]: 1.22 log10CFU; Activity [22]: 3.38 log10CFU; Activity [12]: 2.66 log10CFU
O=C(COc1ccc(/C=N/NC(=O)c2ccncc2)cc1)NCc1ccccc1	> 50	0.78 (≈ 0.303 µg/mL)	
Cc1ccc(CNC(=O)COc2ccc(/C=N/NC(=O)c3ccncc3)cc2)cc1	> 50	0.39 (≈ 0.157 µg/mL)	
O=C(COc1ccc(/C=N/NC(=O)c2ccncc2)cc1)Nc1ccc(Br)cc1	> 50	0.78 (≈ 0.354 µg/mL)	
CC(C)c1ccc(NC(=O)COc2ccc(/C=N/NC(=O)c3ccncc3)cc2)cc1	> 50	0.39 (≈ 0.162 µg/mL)	
O=C(COc1ccc(/C=N/NC(=O)c2ccncc2)cc1)Nc1ccc([N+](=O)[O-])cc1	> 50	1.56 (≈ 0.654 µg/mL)	
O=C(COc1ccc(/C=N/NC(=O)c2ccncc2)cc1)Nc1cccc2ccccc12	> 50	1.56 (≈ 0.662 µg/mL)	
O=C(COc1ccc(/C=N/NC(=O)c2ccncc2)cc1)Nc1ccccc1	> 50	0.78 (≈ 0.292 µg/mL)	
O=C(COc1ccc(/C=N/NC(=O)c2ccncc2)cc1)Nc1ccccc1Br	> 50	0.78 (≈ 0.354 µg/mL)	
